Reference: BindingDB's records for doi:10.1021/jm9800245 (F. Hoffmann-La Roche, 1998)
Structures can show the parent of a compound that is named as a salt.

Key:
[1] = Inhibition of beta-lactamase of Escherichia coli TEM-3 […]
[2] = molecular target: Beta-lactamase AmpC (Pseudomonas aeruginosa); test: Inhibition of beta-lactamase of Pseudomonas aeruginosa 18 SH (class C)

CC(C)(C)OC(=O)N1CC[C@@H]2C1C(=O)N2S(=O)(=O)O (stereo partly drawn) [(2S,5R)-7-Oxo-6-sulfo-2,6-diaza-bicyclo[3.2.0]heptane-2-carboxylic acid tert-butyl ester]
IC50 [1]: > 1000 µM | IC50 [2]: 1.5 µM

CC(C)(C)OC(=O)N1CCC2C1C(=O)N2OS(=O)(=O)O (configuration not stated) [sodium salt-tert-butyl 7-oxo-6-(sulfooxy)-2,6-diazabicyclo[3.2.0]heptane-2-carboxylate]
IC50 [1]: 0.165 µM | IC50 [2]: 0.028 µM

NC(=O)c1ccc(NC(=O)N2CCC3C2C(=O)N3OS(=O)(=O)O)cc1 (configuration not stated) [sodium salt-Sulfuric acid mono-[2-(4-carbamoyl-phenylcarbamoyl)-7-oxo-2,6-diaza-bicyclo[3.2.0]hept-6-yl] ester]
IC50 [2]: 0.026 µM

NC(=O)c1ccc(NC(=O)N2CC[C@@H]3C2C(=O)N3S(=O)(=O)O)cc1 (stereo partly drawn) [(2S,5R)-2-(4-Carbamoyl-phenylcarbamoyl)-7-oxo-2,6-diaza-bicyclo[3.2.0]heptane-6-sulfonic acid]
IC50 [1]: 9000 µM | IC50 [2]: 0.217 µM
